According to ChEMBL document CHEMBL3526121, “Pharmacokinetics, bioavailability, tissue distribution, excretion, and metabolite identification of methoxyflavones in Kaempferia parviflora extract in rats” (Drug Metab Dispos, 2012):
Blank lines part the entries; values can stand above or below the compound they belong to.

What was measured:
[1] = Drug excretion in Wistar rat urine at 750 mg/kg, po after 12 hrs by HPLC-UV analysis; type: ADME, organism-based; set-up: dose 750 mg/kg, route oral; conditions: in vivo
[2] = Drug excretion in Wistar rat feces at 750 mg/kg, po after 12 hrs by HPLC-UV analysis; type: ADME, organism-based; set-up: dose 750 mg/kg, route oral; conditions: in vivo
[3] = Drug metabolism in Wistar rat urine/feces treated with 750 mg/kg, po of 3,5,7,4'-tetramethoxyflavone by LC-MS and LC-MS/MS analysis; type: ADME, organism-based; set-up: dose 750 mg/kg, route oral; conditions: in vivo
[4] = Drug metabolism in Wistar rat assessed as excretion of 3,5-dihydroxy-7-methoxy-2-(4-methoxyphenyl)-4H-chromen-4-one in urine/feces at 750 mg/kg, po by LC-MS and LC-MS/MS analysis; type: ADME, organism-based; set-up: dose 750 mg/kg, route oral; conditions: in vivo
[5] = Drug metabolism in Wistar rat assessed as excretion of 3,5-dihydroxy-2-(4-hydroxyphenyl)-7-methoxy-4H-chromen-4-one in feces at 750 mg/kg, po by LC-MS and LC-MS/MS analysis; type: ADME, organism-based; set-up: dose 750 mg/kg, route oral; conditions: in vivo
Kidney = test: AUC (0.083 to 4 hrs) in Wistar rat kidney at 750 mg/kg, po by LC-MS/MS analysis; type: ADME, organism-based; set-up: time 0.083-4 hr, dose 750 mg/kg, route oral; conditions: in vivo
Lung = test: AUC (0.083 to 4 hrs) in Wistar rat lung at 750 mg/kg, po by LC-MS/MS analysis; type: ADME, organism-based; set-up: time upper 4 hr, time lower 0.083 hr, dose 750 mg/kg, route oral; conditions: in vivo
[6] = Cmax in Wistar rat testes at 750 mg/kg, po by LC-MS/MS analysis; type: ADME, organism-based, Testis; set-up: dose 750 mg/kg, route oral
[7] = Drug excretion in Wistar rat feces at 750 mg/kg, po after 18 to 24 hrs by HPLC-UV analysis; type: ADME, organism-based; set-up: dose 750 mg/kg, route oral; conditions: in vivo
[8] = Oral bioavailability in Wistar rat at 250 mg/kg by HPLC analysis; type: ADME, organism-based; conditions: in vivo
[9] = Tmax in Wistar rat liver at 750 mg/kg, po by LC-MS/MS analysis; type: ADME, organism-based; set-up: dose 750 mg/kg, route oral
[10] = Cmax in Wistar rat liver at 750 mg/kg, po by LC-MS/MS analysis; type: ADME, organism-based; set-up: dose 750 mg/kg, route oral
[11] = Half life in Wistar rat at 250 mg/kg, iv by HPLC analysis; type: ADME, organism-based; set-up: dose 250 mg/kg, route intravenous; conditions: Wistar, in vivo
Liver = test: AUC (0.083 to 4 hrs) in Wistar rat liver at 750 mg/kg, po by LC-MS/MS analysis; type: ADME, organism-based; set-up: time 0.083-4 hr, dose 750 mg/kg, route oral; conditions: in vivo
[12] = Elimination rate constant in Wistar rat at 250 mg/kg, iv by HPLC analysis; type: ADME, organism-based; set-up: dose 250 mg/kg, route intravenous; conditions: Wistar, in vivo, read-out: Ke (converted)
[13] = Drug excretion in Wistar rat feces at 750 mg/kg, po after up to 72 hrs by HPLC-UV analysis; type: ADME, organism-based; set-up: dose 750 mg/kg, route oral; conditions: faeces, read-out: Drug excretion
[14] = AUC in Wistar rat at 250 mg/kg, iv by HPLC analysis; type: ADME, organism-based; set-up: dose 250 mg/kg, route intravenous; conditions: plasma
[15] = Drug metabolism in Wistar rat assessed as excretion of 7-methoxy-2-(4-methoxyphenyl)-4-oxo-4H-chromen-5-yl hydrogen sulfate in urine at 750 mg/kg, po by LC-MS and LC-MS/MS analysis; type: ADME, organism-based; set-up: dose 750 mg/kg, route oral; conditions: in vivo
[16] = Clearance in Wistar rat at 250 mg/kg, iv by HPLC analysis; type: ADME, organism-based; set-up: dose 250 mg/kg, route intravenous; conditions: in vivo
[17] = Cmax in Wistar rat kidney at 750 mg/kg, po by LC-MS/MS analysis; type: ADME, organism-based; set-up: dose 750 mg/kg, route oral
[18] = Half life in Wistar rat at 250 mg/kg, po by HPLC analysis; type: ADME, organism-based; set-up: dose 250 mg/kg, route oral; conditions: in vivo
Rattus norvegicus [19] = test: Volume of distribution in Wistar rat at 250 mg/kg, po by HPLC analysis; type: ADME, organism-based; set-up: dose 250 mg/kg, route oral; conditions: in vivo
[20] = Elimination rate constant in Wistar rat at 250 mg/kg, po by HPLC analysis; type: ADME, organism-based; set-up: dose 250 mg/kg, route oral; conditions: in vivo, read-out: Ke (converted)
[21] = Drug metabolism in Wistar rat assessed as excretion of 5-hydroxy-2-(4-hydroxyphenyl)-7-methoxy-4H-chromen-4-one in urine/feces at 750 mg/kg, po by LC-MS and LC-MS/MS analysis; type: ADME, organism-based; set-up: dose 750 mg/kg, route oral; conditions: in vivo
[22] = Drug excretion in Wistar rat urine at 750 mg/kg, po after 24 to 72 hrs by HPLC-UV analysis; type: ADME, organism-based; set-up: dose 750 mg/kg, route oral; conditions: in vivo
[23] = Tmax in Wistar rat brain at 750 mg/kg, po by LC-MS/MS analysis; type: ADME, organism-based; set-up: dose 750 mg/kg, route oral
[24] = Tmax in Wistar rat at 250 mg/kg, po by HPLC analysis; type: ADME, organism-based; set-up: dose 250 mg/kg, route oral; conditions: in vivo
[25] = Tmax in Wistar rat kidney at 750 mg/kg, po by LC-MS/MS analysis; type: ADME, organism-based; set-up: dose 750 mg/kg, route oral
[26] = Cmax in Wistar rat at 250 mg/kg, po by HPLC analysis; type: ADME, organism-based; set-up: dose 250 mg/kg, route oral; conditions: in vivo
[27] = AUC in Wistar rat at 250 mg/kg, po by HPLC analysis; type: ADME, organism-based; set-up: dose 250 mg/kg, route oral; conditions: plasma
[28] = Drug excretion in Wistar rat urine at 750 mg/kg, po after up to 72 hrs by HPLC-UV analysis; type: ADME, organism-based; set-up: dose 750 mg/kg, route oral; conditions: read-out: Drug excretion
[29] = Cmax in Wistar rat lung at 750 mg/kg, po by LC-MS/MS analysis; type: ADME, organism-based; set-up: dose 750 mg/kg, route oral
Brain = test: AUC (0.083 to 4 hrs) in Wistar rat brain at 750 mg/kg, po by LC-MS/MS analysis; type: ADME, organism-based; set-up: time 0.083-4 hr, dose 750 mg/kg, route oral; conditions: in vivo
[30] = Cmax in Wistar rat brain at 750 mg/kg, po by LC-MS/MS analysis; type: ADME, organism-based; set-up: dose 750 mg/kg, route oral
[31] = AUC (0.083 to 4 hrs) in Wistar rat testes at 750 mg/kg, po by LC-MS/MS analysis; type: ADME, organism-based, Testis; set-up: time 0.083-4 hr, dose 750 mg/kg, route oral; conditions: in vivo
[32] = Tmax in Wistar rat lung at 750 mg/kg, po by LC-MS/MS analysis; type: ADME, organism-based; set-up: dose 750 mg/kg, route oral
[33] = Clearance in Wistar rat at 250 mg/kg, po by HPLC analysis; type: ADME, organism-based; set-up: dose 250 mg/kg, route oral; conditions: in vivo
Rattus norvegicus [34] = test: Absorption rate constant in Wistar rat at 250 mg/kg, po by HPLC analysis; type: ADME, organism-based; set-up: dose 250 mg/kg, route oral; conditions: in vivo
[35] = Tmax in Wistar rat testes at 750 mg/kg, po by LC-MS/MS analysis; type: ADME, organism-based, Testis; set-up: dose 750 mg/kg, route oral
[36] = Drug metabolism in Wistar rat assessed as excretion of 5-hydroxy-2-(4-methoxyphenyl)-4-oxo-4H-chromen-7-yl hydrogen sulfate in urine at 750 mg/kg, po by LC-MS and LC-MS/MS analysis; type: ADME, organism-based; set-up: dose 750 mg/kg, route oral; conditions: in vivo

Drug excretion [1]: Active
Drug excretion [2]: Active
SMILES: COc1cc(O)c2c(=O)c(OC)c(-c3ccc(OC)c(OC)c3)oc2c1 [RETUSIN]

Drug metabolism [3]: metabolite_detected
SMILES: COc1cc(O)c2c(=O)c(O)c(-c3ccc(O)cc3)oc2c1 [RHAMNOCITRIN]

Drug excretion [1]: Active
Drug excretion [2]: Active
SMILES: COc1cc(O)c2c(=O)cc(-c3ccccc3)oc2c1 [TECHTOCHRYSIN]

SMILES: COc1ccc(-c2oc3cc(OC)cc(OC)c3c(=O)c2OC)cc1 [TETRAMETHYLKAEMPFEROL]
Drug metabolism [4]: metabolite_detected
Drug metabolism [5]: metabolite_detected

AUC (Kidney): 3.01 µg·h/g
AUC (Lung): 1.88 µg·h/g
Cmax [6]: 1100 ng/g
Drug excretion [7]: Active
bioavailability [8]: 1.75%
Tmax [9]: 2.64 h
Cmax [10]: 3010 ng/g
half-life [11]: 4.19 h
AUC (Liver): 7.83 µg·h/g
k el [12]: 8.89e-05 s⁻¹
dose excreted at 72 h [13]: 1.76%
AUC [14]: 276 µg·h/mL
Drug metabolism [15]: metabolite_detected
clearance [16]: 0.105 mL/min
Drug excretion [1]: Active
Cmax [17]: 1640 ng/g
half-life [18]: 5.04 h
Vd (Rattus norvegicus [19]): 2385.1 mL
k el [20]: 4.17e-05 s⁻¹
Drug metabolism [21]: metabolite_detected
Drug excretion [22]: Active
Tmax [23]: 3.43 h
Tmax [24]: 0.85 h
Tmax [25]: 3.43 h
Cmax [26]: 880 ng/mL
AUC [27]: 6.96 µg·h/mL
dose excreted at 72 h [28]: 1.77%
Cmax [29]: 1410 ng/g
AUC (Brain): 2.5 µg·h/g
Cmax [30]: 1430 ng/g
AUC [31]: 1.96 µg·h/g
Tmax [32]: 1.76 h
CL/F [33]: 5.62 mL/min
ka (Rattus norvegicus [34]): 8.53 h⁻¹
Tmax [35]: 3.14 h
Drug metabolism [36]: metabolite_detected
Drug excretion [2]: Active
SMILES: COc1ccc(-c2cc(=O)c3c(OC)cc(OC)cc3o2)cc1 [TRIMETHYLAPIGENIN]
